Test system: Peripheral Neuropathy in a Mouse Caused by Oxaliplatin
Test: Von Frey test (0.16 g filament), peripheral neuropathy caused by oxaliplatin
Format: in vivo, Balb/c mice
Settings: 6 mg/kg oxaliplatin + 100 mg/kg orally daily from Day 6 (therapy)
Excerpt: (§1) Six to seven-week-old female Balb/c mice were used for the tests as with Example 1. All the mice were acclimated for seven days after arrival. Then, the mice were grouped into the following four groups: a control group, a group receiving oxaliplatin, a group receiving D-threitol, and a group receiving oxaliplatin and D-threitol (a group receiving oxaliplatin+D-threitol). Each group consisted of five mice.
On Day 8 of acclimation, the mice in the group receiving oxaliplatin and the group receiving oxaliplatin+D-threitol were intraperitoneally administered with oxaliplatin at a dose of 6 mg/kg. This day was designated as the first day of the administration (Day 0). Thereafter, these mice were intraperitoneally administered with oxaliplatin at a daily dose of 6 mg/kg on Day 7 and Day 14.
The mice in the group receiving D-threitol and the group receiving oxaliplatin+D-threitol were orally administered with D-threitol at a dose of 5 mg/kg daily from Day 0.
The mice in the four groups described in (1) of the present example (Example 3) were placed in a cage, and the avoidance response frequency (score) was measured by pressing a filament with a bending force of 0.16 g against the back of the hind paw.
On Day 8 of acclimation, the mice in the group receiving oxaliplatin and the group receiving oxaliplatin+D-threitol were intraperitoneally administered with oxaliplatin at a dose of 6 mg/kg. This day was designated as the first day of the administration (Day 0). Thereafter, these mice were intraperitoneally administered with oxaliplatin at the same dose on Day 7 and Day 14 for a total of 3 doses.
The mice in the group receiving 100 mg/kg D-threitol were orally administered with D-threitol at a dose of 100 mg/kg daily from Day 0. The mice in the group receiving oxaliplatin+100 mg/kg D-threitol were orally administered with D-threitol at a dose of 100 mg/kg daily from Day 6 of administration.
For the mice in the four groups described in (1) of the present example (Example 4), the avoidance response frequency (score) was measured by pressing a filament with a bending force of 0.16 g against the back of the hind paw.
as §1, with “L-talitol,” for “D-threitol,”, “L-talitol” for “D-threitol”, “oxaliplatin+L-talitol).” for “oxaliplatin+D-threitol).”, “mice. […]” for “mice.”
The mice in the four groups described in (1) of the present example (Example 5) were placed in a cage, and the avoidance response frequency (score) was measured by pressing a filament with a bending force of 0.16 g against the back of the hind paw. […]

OC[C@@H](O)[C@H](O)CO [D-threitol]
avoidance response score (from Day 15 onwards): maintained a score clearly lower than that of the group receiving oxaliplatin

OC[C@H](O)[C@H](O)[C@H](O)[C@@H](O)CO [L-talitol]
avoidance response score (from Day 12 onwards): maintained a score clearly lower than that of the group receiving oxaliplatin

OC[C@@H](O)[C@H](O)[C@@H](O)CO [xylitol]
avoidance response score (from Day 12 onwards): maintained a score clearly lower than that of the group receiving oxaliplatin
